Broadly, the IC50 is the concentration at which inhibition is half-maximal. Broadly, the Ki is the dissociation constant of the complex between target and ligand, obtained from inhibition or displacement.

One test addresses LRRK2 (Homo sapiens, UniProt Q5S007). Description: LRRK2 assay (Life Technologies Adapta, SelectScreen Profiling, IC50). Format: biochemical. The note with it: for IC50: 75 μM ATP, 10-point curves, read-out: LRRK 2 IC50; for selectivity for JAK1 over LRRK2 (in words): 5-sulfanylphenyl compound compared with 5-chlorophenyl matched pair; for Ratio (LRRK 2 IC50: JAK1 Ki): selectivity ratio LRRK2 IC50 over JAK1 Ki.

Test [1] has as its target T1, isolated recombinant JAK1 kinase domain (Homo sapiens, UniProt P23458).
T1 construct: The activity of the isolated recombinant JAK1 and JAK2 kinase domain was measured
Put plainly: JAK1 enzyme assay (Caliper LabChip, Ki). Format: biochemical. As to conditions: 25 μM ATP. Summed up: (§1)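 Ki values fitted with Morrison tight-binding equation adjusted for ATP-competitive inhibition, using product-to-total peptide ratio read by Caliper LabChip. Reactions: isolated JAK1 or JAK2 kinase domain with N-terminal 5-carboxyfluorescein JAK3-derived peptide, 22° C for 30 min, quenched by EDTA.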

Test [2] concerns JAK1-dependent STAT6 phosphorylation downstream of IL-13 stimulation in BEAS-2B human bronchial epithelial cells. Description: JAK1 pathway assay in BEAS-2B cells (IL-13 stimulated STAT6 phosphorylation, MSD). In kind it is cell-based. As to conditions: read-out: P-STAT6 BEAS2B + IL13 IC50. Summed up:
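BEAS-2B human bronchial epithelial cells, plated the day before in complete growth medium, were preincubated with compound for 1 hr at 37° C (0.2% DMSO final), then stimulated with IL-13 at its EC90 for 15 min. STAT6 phosphorylation in lysates was read by MSD; EC50 was taken as 50% inhibition versus DMSO control.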

Test [3] has as its target T2, isolated recombinant JAK2 kinase domain (Homo sapiens, UniProt O60674).
T2 construct: The activity of the isolated recombinant JAK1 and JAK2 kinase domain was measured
Put plainly: JAK2 enzyme assay (Caliper LabChip, Ki). Format: biochemical. As to conditions: 25 μM ATP. Summed up:
as §1

Sequence of LRRK2 (Q5S007 970-2527 limits assumed): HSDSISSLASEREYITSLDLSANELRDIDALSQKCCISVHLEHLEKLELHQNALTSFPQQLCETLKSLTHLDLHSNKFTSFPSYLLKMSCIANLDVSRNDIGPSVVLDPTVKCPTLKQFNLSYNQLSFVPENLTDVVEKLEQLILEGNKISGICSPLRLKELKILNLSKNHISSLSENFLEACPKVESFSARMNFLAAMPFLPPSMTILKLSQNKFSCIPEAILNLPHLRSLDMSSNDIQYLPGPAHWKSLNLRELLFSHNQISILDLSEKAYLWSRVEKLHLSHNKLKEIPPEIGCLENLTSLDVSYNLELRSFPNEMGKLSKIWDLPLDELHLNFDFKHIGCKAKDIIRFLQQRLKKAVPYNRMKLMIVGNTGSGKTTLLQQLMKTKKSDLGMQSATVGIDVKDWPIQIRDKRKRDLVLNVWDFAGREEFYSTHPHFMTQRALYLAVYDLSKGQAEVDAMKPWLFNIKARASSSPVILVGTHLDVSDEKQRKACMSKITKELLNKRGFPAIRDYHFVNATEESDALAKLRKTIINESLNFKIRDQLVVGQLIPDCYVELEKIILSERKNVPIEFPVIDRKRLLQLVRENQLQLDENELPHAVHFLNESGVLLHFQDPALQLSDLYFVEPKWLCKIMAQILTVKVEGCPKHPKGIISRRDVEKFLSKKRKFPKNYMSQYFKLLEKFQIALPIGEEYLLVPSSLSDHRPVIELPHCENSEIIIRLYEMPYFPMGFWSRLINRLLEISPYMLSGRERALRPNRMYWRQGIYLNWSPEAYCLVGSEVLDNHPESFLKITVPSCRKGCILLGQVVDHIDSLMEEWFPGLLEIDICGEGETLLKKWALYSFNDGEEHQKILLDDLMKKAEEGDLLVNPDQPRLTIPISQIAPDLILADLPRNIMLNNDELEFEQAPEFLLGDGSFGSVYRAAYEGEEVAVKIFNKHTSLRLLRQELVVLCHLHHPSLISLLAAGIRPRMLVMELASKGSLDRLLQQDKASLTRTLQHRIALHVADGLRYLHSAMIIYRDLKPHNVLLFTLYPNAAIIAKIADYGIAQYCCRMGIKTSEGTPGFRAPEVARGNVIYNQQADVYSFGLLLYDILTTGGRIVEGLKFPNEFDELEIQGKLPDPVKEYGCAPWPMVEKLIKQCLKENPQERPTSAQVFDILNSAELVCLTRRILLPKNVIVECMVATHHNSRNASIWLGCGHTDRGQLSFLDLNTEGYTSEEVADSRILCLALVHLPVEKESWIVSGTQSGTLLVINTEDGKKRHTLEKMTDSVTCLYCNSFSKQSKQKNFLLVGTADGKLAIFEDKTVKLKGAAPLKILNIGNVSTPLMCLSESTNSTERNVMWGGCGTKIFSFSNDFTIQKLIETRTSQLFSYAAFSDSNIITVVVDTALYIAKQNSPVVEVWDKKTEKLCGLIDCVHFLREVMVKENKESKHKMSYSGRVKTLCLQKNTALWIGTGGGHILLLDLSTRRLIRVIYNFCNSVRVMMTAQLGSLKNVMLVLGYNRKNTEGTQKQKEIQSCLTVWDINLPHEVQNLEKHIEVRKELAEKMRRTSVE
T1 sequence (P23458 875-1153 limits assumed): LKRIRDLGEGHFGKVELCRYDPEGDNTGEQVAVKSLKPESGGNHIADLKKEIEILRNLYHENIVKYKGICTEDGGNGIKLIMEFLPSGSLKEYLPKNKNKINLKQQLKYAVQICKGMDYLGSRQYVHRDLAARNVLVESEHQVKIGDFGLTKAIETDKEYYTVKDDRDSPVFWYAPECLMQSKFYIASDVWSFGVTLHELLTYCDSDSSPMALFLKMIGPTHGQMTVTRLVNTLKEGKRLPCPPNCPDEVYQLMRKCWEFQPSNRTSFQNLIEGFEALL
T2 sequence (O60674 849-1124 limits assumed): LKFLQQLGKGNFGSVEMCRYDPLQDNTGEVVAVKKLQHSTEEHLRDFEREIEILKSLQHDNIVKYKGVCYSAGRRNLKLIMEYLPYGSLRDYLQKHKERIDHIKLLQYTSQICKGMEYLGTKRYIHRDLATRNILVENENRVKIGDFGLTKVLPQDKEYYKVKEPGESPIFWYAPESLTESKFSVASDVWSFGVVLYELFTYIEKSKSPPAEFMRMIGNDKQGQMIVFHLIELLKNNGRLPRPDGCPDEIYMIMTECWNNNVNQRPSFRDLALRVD

For `CSc1ccc(OC(F)F)c(-c2nn(CC(=O)N3CCC(N4CCC[C@@H](C#N)C4)CC3)cc2NC(=O)c2cnn3cccnc23)c1` [K], on LRRK2, the IC50 was 1700 nM, the “selectivity for JAK1 over LRRK2 (in words)” value (“selectivity for JAK1” below) is “high degree of JAK1 over LRRK2 selectivity” and the “Ratio (LRRK 2 IC50: JAK1 Ki)” value is 8500. Also, in test [1] (Morrison tight binding model), the Ki was 0.2 nM.

Consider `CSc1ccc(OC(F)F)c(-c2nn(CC(C)(C)O)cc2NC(=O)c2cnn3cccnc23)c1` [H], for which the “selectivity for JAK1” value on LRRK2 is on record as “greater selectivity for JAK1 over LRRK2 than its 5-chlorophenyl matched pair B”.

Consider `CC(C)Sc1ccc(OC(F)F)c(-c2nn(C)cc2NC(=O)c2cnn3cccnc23)c1` [E], for which, at LRRK2, the concentration for half-maximal inhibition (IC50) came out at 2220 nM, the “selectivity for JAK1” value is given as “greater selectivity for JAK1 over LRRK2 than their 5-chlorophenyl matched pair A” and the “Ratio (LRRK 2 IC50: JAK1 Ki)” value came to 8880. For the same compound, the inhibitory constant (Ki) in test [1] (Morrison tight binding model) worked out at 0.25 nM.

For the compound `CSc1ccc(OC(F)F)c(-c2nn(CC(=O)N3CCC(CN4CCN(CC(=O)N(C)C)CC4)CC3)cc2NC(=O)c2cnn3cccnc23)c1` [L], at LRRK2, the IC50 is 2000 nM, the “selectivity for JAK1” value is on record as “high degree of JAK1 over LRRK2 selectivity” and the “Ratio (LRRK 2 IC50: JAK1 Ki)” value is reported as 6453. Moreover, in test [1] (Morrison tight binding model), the inhibitory constant (Ki) was 0.31 nM.

`CSc1ccc(OC(F)F)c(-c2nn(C)cc2NC(=O)c2cnn3cccnc23)c1` [D]: at LRRK2, the IC50 is 193 nM, the “selectivity for JAK1” value was “greater selectivity for JAK1 over LRRK2 than their 5-chlorophenyl matched pair A” and the “Ratio (LRRK 2 IC50: JAK1 Ki)” value turned out to be 1485. In test [1] (Morrison tight binding model), the Ki is 0.13 nM.

As for `Cn1cc(NC(=O)c2cnn3cccnc23)c(-c2cc(SC3COC3)ccc2OC(F)F)n1` [F], the “selectivity for JAK1” value on LRRK2 is “greater selectivity for JAK1 over LRRK2 than their 5-chlorophenyl matched pair A”. Also, the Ki in test [1] (Morrison tight binding model) was determined as 0.29 nM.

As for `CSc1ccc(OC(F)F)c(-c2nn(C3CCOCC3)cc2NC(=O)c2cnn3cccnc23)c1` [I], on LRRK2, the “selectivity for JAK1” value was “greater selectivity for JAK1 over LRRK2 than its 5-chlorophenyl matched pair C”. The Ki in test [1] (Morrison tight binding model) was determined as 0.67 nM.

Take `Cn1cc(NC(=O)c2cnn3cccnc23)c(-c2cc(SC(CF)CF)ccc2OC(F)F)n1` [G]: the “selectivity for JAK1” value on LRRK2 is recorded as “greater selectivity for JAK1 over LRRK2 than their 5-chlorophenyl matched pair A”. Besides, the inhibition constant (Ki) in test [1] (Morrison tight binding model) amounted to 0.16 nM.

For `COC(=O)N1CCN(CC2CCN(C(=O)Cn3cc(NC(=O)c4cnn5cccnc45)c(-c4cc(SC)ccc4OC(F)F)n3)CC2)CC1` [J], on LRRK2, the IC50 stood at 2450 nM, the “selectivity for JAK1” value is “high degree of JAK1 over LRRK2 selectivity” and the “Ratio (LRRK 2 IC50: JAK1 Ki)” value was 8167. Also, in test [1] (Morrison tight binding model), the Ki stood at 0.3 nM.

In the case of `O=C(Nc1cn(C2CCOCC2)nc1-c1cc(Cl)ccc1OC(F)F)c1cnn2cccnc12` [C, reference compound], at LRRK2, the half-inhibitory concentration (IC50) was determined as 1030 nM and the “Ratio (LRRK 2 IC50: JAK1 Ki)” value was determined as 1493. Also, the Ki in test [1] (Morrison tight binding model) was found to be 0.69 nM.

`CSc1ccc(OC(F)F)c(-c2nn(CC(=O)N3CCC(N4CCOCC4)CC3)cc2NC(=O)c2cnn3cccnc23)c1` [N]: at LRRK2, the IC50 was found to be 1850 nM, the “selectivity for JAK1” value was “high degree of JAK1 over LRRK2 selectivity” and the “Ratio (LRRK 2 IC50: JAK1 Ki)” value came out at 6379. In addition, in test [1] (Morrison tight binding model), the Ki came out at 0.29 nM.

With `Cn1cc(NC(=O)c2cnn3cccnc23)c(-c2cc(Cl)ccc2OC(F)F)n1` [A, reference compound], on LRRK2, the IC50 came to 80.9 nM and the “Ratio (LRRK 2 IC50: JAK1 Ki)” value is 449. In test [1] (Morrison tight binding model), the inhibition constant (Ki) stood at 0.18 nM.

In the case of `CSc1ccc(OC(F)F)c(-c2nn(CC(=O)N3CCC(NCC(C)(C)C#N)CC3)cc2NC(=O)c2cnn3cccnc23)c1` [M], at LRRK2, the IC50 came out at 3350 nM, the “selectivity for JAK1” value is on record as “high degree of JAK1 over LRRK2 selectivity” and the “Ratio (LRRK 2 IC50: JAK1 Ki)” value was 16750. The inhibition constant Ki in test [1] (Morrison tight binding model) worked out at 0.2 nM.

Take `CSc1ccc(OC(F)F)c(-c2nn(CC(=O)N3CCC(N4CCOC[C@H]4C)CC3)cc2NC(=O)c2cnn3cccnc23)c1` [Example 57, N-[3-[2-(difluoromethoxy)-5-methylsulfanyl-phenyl]-1-[2-[4-[(3R)-3-methylmorpholin-4-yl]-1-piperidyl]-2-oxo-ethyl]pyrazol-4-yl]pyrazolo[1,5-a]pyrimidine-3-carboxamide]: the Ki stood at 0.26 nM in test [1] (recombinant JAK1 kinase domain) and 0.43 nM in test [3]. Further, the IC50 in test [2] is 18 nM.

As to `CC(F)(F)CNC1CCN(C(=O)Cn2cc(NC(=O)c3cnn4cccnc34)c(-c3cc(SC4COC4)ccc3OC(F)F)n2)CC1` [Example 185, N-[3-[2-(difluoromethoxy)-5-(oxetan-3-ylsulfanyl)phenyl]-1-[2-[4-(2,2-difluoropropylamino)-1-piperidyl]-2-oxo-ethyl]pyrazol-4-yl]pyrazolo[1,5-a]pyrimidine-3-carboxamide], the Ki was found to be 0.71 nM in test [1] (recombinant JAK1 kinase domain) and 1.7 nM in test [3]. Further, the IC50 in test [2] is 47 nM.

Regarding `O=C(Nc1cn(CC(=O)N2CCN(CC3CCOCC3)CC2)nc1-c1cc(SC2COC2)ccc1OC(F)F)c1cnn2cccnc12` [Example 188, N-[3-[2-(difluoromethoxy)-5-(oxetan-3-ylsulfanyl)phenyl]-1-[2-oxo-2-[4-(tetrahydropyran-4-ylmethyl)piperazin-1-yl]ethyl]pyrazol-4-yl]pyrazolo[1,5-a]pyrimidine-3-carboxamide], the inhibition constant Ki in test [1] (recombinant JAK1 kinase domain) was 0.62 nM; in test [3] it was 1.3 nM. Also, the half-inhibitory concentration (IC50) in test [2] came out at 48 nM.

For the compound `CNCCn1cc(NC(=O)c2cnn3cccnc23)c(-c2cc(SC)ccc2OC(F)F)n1` [Example 28, N-[3-[2-(difluoromethoxy)-5-methylsulfanyl-phenyl]-1-[2-(methylamino)ethyl]pyrazol-4-yl]pyrazolo[1,5-a]pyrimidine-3-carboxamide], the figures for the inhibition constant Ki in test [1] (recombinant JAK1 kinase domain) and in test [3] were 0.22 nM and 0.26 nM, respectively. The IC50 in test [2] is 3 nM.

Take `CSc1ccc(OC(F)F)c(-c2nn(CC(=O)N3C[C@@H]4CCN[C@@H]4C3)cc2NC(=O)c2cnn3cccnc23)c1` [Example 56, N-[1-[2-[(3aS,6aS)-2,3,3a,4,6,6a-hexahydro-1H-pyrrolo[2,3-c]pyrrol-5-yl]-2-oxo-ethyl]-3-[2-(difluoromethoxy)-5-methylsulfanyl-phenyl]pyrazol-4-yl]pyrazolo[1,5-a]pyrimidine-3-carboxamide]: the inhibition constant (Ki) in test [1] (recombinant JAK1 kinase domain) worked out at 0.41 nM; in test [3], 0.48 nM. Also, the IC50 in test [2] stood at 84 nM.

In the case of `CC(C)(O)Cn1cc(NC(=O)c2cnn3cccnc23)c(-c2cc(Cl)ccc2OC(F)F)n1` [B, reference compound], at LRRK2, the 50% inhibitory concentration (IC50) was 431 nM and the “Ratio (LRRK 2 IC50: JAK1 Ki)” value is 1078. For the same compound, the inhibitory constant (Ki) in test [1] (Morrison tight binding model) worked out at 0.4 nM.

Source of the values: patent US20180265515A1 (Genentech, Inc., priority 2015, published 2018).
